{"source": "patent US8816089B2", "about": "“Methods for controlling SR protein phosphorylation, and antiviral agents whose active ingredients comprise agents that control SR protein activity” (priority 2003, dated 2014)", "key": {"Cytomegalovirus": {"system": "Cytomegalovirus", "details": "HFL1 cells"}, "sindbis virus": {"system": "sindbis virus", "type": "cell-based"}, "PRP4": {"target": "PRP4 (Homo sapiens, UniProt Q13523)", "sequence (Q13523 whole entry)": "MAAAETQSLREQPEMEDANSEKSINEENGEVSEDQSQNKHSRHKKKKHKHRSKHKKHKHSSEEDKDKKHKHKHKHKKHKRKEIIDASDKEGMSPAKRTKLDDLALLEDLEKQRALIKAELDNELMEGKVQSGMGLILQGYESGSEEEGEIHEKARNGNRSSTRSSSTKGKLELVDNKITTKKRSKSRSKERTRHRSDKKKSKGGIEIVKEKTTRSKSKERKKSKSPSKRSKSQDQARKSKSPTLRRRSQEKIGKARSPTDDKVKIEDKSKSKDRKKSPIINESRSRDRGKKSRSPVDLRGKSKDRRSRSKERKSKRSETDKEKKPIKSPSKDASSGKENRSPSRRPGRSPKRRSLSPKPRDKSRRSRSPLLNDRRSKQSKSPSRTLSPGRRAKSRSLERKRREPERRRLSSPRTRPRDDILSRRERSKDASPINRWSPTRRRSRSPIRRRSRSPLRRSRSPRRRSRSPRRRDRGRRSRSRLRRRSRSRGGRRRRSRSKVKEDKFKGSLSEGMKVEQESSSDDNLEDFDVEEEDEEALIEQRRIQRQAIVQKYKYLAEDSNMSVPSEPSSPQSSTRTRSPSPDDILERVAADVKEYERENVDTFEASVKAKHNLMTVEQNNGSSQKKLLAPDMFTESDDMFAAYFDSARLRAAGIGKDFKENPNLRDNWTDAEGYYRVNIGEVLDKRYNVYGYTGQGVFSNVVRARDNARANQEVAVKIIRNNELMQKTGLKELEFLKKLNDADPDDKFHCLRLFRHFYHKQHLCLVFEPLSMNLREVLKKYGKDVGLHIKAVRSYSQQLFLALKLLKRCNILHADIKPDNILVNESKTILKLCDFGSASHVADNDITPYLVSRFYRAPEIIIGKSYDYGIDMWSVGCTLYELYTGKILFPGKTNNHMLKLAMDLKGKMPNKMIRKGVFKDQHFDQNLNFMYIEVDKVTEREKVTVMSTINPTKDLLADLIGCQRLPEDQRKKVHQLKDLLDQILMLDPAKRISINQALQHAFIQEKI", "experiment": "Kinase phosphorylation assay, same technique as for SRPK1", "type": "biochemical", "details": "final concentration of 10 μM"}, "PKA": {"system": "PKA", "details": "final concentration of 10 μM"}, "Slc:SD rats": {"system": "Slc:SD rats", "experiment": "Single-dose oral administration toxicity test", "method": "The toxicity of SRPIN-1 was tested by single-dose oral administration to rats. SRPIN-1 was orally administered at a dose of 125, 250, 500, 1000, or 2000 mg/kg (in a volume of 10 ml per kg) to Slc:SD rats (five weeks old; Japan SLC, Inc.) whose weight gain and general conditions were normal during the acclimatization period. Each group included two males and two females. The animals were fasted from the evening of the day before administration until about four hours after administration. […] Then, SRPIN-1 was likewise orally administered at a dose of 2000 mg/kg to five male and five female Slc:SD rats (five weeks old)."}, "PKC": {"system": "PKC", "experiment": "Kinase phosphorylation assay, same technique as for SRPK1", "type": "biochemical", "details": "final concentration of 10 μM"}, "SRp75 protein": {"system": "SRp75 protein", "experiment": "In vivo inhibition of SR protein phosphorylation and induction of SR protein degradation, Western blot of HA-SRp75", "type": "cell-based, human", "details": "Flp-In-293 cells, SRPIN-1 10, 20, or 50 μM with MG132 10 μM, 15 hours", "method": "FIG. 4C: Evaluation of in-vivo inhibition of SR protein phosphorylation using SRPIN-1, and evaluation of the induction of the accompanying SR protein degradation. HA-SRp75 plasmid was introduced into Flp-In293 cells. After 36 hours, MG132 (final concentration: 10 μM) and SRPIN-1 (10, 20, or 50 μM) were added to the cells. The cells were incubated for 15 hours and then lysed. After SDS-PAGE, the samples were analyzed by Western blotting using anti-HA antibody. Western analysis was also carried out using an antibody against beta actin as a control protein amount.\nHA-SRp75 plasmid (1.0 μg) was introduced into Flp-In-293 cells. After 36 hours, MG132 (final concentration: 10 μM) and SRPIN-1 (10, 20, or 50 μM) were added, and the cells were incubated for 15 hours. Then, the cells were lysed with SDS-PAGE sample buffer. The lysate was used as a protein sample. The sample was fractionated by SDS-PAGE and analyzed by Western blotting using the anti-HA antibody. In addition, as a control for protein amount, Western analysis was carried out using anti-beta actin antibody."}, "HIV": {"system": "HIV", "experiment": "HIV infection experiment in MT-4 cells, HIVp24 by Lumipulse ELISA", "details": "supernatant after 48 hours"}, "SARS virus (FFM-1)": {"system": "SARS virus (FFM-1)", "type": "cell-based"}, "SRPK2": {"target": "SRPK2 (Homo sapiens, UniProt P78362)", "sequence (P78362 whole entry, species assumed)": "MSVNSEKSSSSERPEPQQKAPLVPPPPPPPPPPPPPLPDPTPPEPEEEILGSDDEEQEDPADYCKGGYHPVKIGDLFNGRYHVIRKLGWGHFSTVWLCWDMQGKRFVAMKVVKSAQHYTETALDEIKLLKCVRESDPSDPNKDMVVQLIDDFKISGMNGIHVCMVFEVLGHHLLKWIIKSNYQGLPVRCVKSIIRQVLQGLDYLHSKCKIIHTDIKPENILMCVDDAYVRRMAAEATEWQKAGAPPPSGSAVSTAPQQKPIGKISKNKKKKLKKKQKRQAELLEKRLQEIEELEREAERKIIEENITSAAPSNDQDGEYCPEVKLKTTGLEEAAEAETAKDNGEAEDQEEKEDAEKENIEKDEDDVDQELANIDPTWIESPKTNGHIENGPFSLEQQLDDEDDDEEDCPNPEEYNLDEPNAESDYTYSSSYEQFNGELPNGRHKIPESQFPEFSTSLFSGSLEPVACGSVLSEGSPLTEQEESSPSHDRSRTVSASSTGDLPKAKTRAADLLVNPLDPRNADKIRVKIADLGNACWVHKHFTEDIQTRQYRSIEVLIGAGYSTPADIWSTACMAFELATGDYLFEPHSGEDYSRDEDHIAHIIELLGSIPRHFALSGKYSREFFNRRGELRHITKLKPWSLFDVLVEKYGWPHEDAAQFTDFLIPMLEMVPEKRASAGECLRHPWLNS", "experiment": "Kinase phosphorylation assay, same technique as for SRPK1", "type": "biochemical", "details": "final concentration of 10 μM"}, "[1]": {"system": "Chinese hamster CHL cells", "experiment": "Chromosomal screening test for mutagenicity in mammalian cells"}, "SRPK1": {"target": "T1, SRPK1 (Homo sapiens, UniProt Q96SB4)", "T1 construct": "made in house; host or cells: E. coli", "T1 sequence (Q96SB4 whole entry, species assumed)": "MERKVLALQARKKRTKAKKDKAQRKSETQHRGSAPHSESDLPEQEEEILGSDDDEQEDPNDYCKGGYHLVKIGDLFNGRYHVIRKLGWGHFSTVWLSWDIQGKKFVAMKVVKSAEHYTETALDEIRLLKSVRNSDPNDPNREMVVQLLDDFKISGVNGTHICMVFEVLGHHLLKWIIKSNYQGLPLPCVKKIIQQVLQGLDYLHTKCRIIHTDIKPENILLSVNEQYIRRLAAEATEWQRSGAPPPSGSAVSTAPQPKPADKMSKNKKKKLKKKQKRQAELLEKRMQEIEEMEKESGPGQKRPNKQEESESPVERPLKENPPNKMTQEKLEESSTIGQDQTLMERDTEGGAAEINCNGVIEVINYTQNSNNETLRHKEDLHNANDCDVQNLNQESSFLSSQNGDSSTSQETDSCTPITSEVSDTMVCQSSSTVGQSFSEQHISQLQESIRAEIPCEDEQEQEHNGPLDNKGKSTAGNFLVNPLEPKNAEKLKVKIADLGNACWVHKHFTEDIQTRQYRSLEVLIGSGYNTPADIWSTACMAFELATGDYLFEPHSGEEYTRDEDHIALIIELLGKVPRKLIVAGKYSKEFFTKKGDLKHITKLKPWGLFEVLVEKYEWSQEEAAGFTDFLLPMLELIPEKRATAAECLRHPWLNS", "experiment": "SRPK1 phosphorylation activity assay with RS peptide and [γ-32P]ATP", "type": "biochemical"}}, "data": [{"compound": "O=C(Nc1cc(C(F)(F)F)ccc1N1CCCCC1)c1ccncc1", "note": "[Compound No. 340, N-[2-(1-piperidinyl)-5-(trifluoromethyl)phenyl]isonicotinamide]", "values": [{"measurement": "morphological changes and cell death caused by cytomegalovirus infection", "setting": "Cytomegalovirus; 20 μM, seven days after infection", "value": "neither abnormal morphological changes nor cell death were detectable"}, {"measurement": "morphological changes induced by the compound", "setting": "Cytomegalovirus; 40 μM", "value": "Partial morphological changes thought to be induced by SRPIN-1 were detectable"}, {"measurement": "cell damage caused by sindbis virus propagation", "setting": "sindbis virus", "value": "dramatically suppressed"}, {"measurement": "propagation of sindbis virus (plaque assay)", "setting": "sindbis virus", "value": "significantly suppressed the propagation of sindbis virus in a concentration-dependent manner"}, {"measurement": "inhibitory effect on PRP4", "setting": "PRP4", "value": "did not exhibit an inhibitory effect"}, {"measurement": "inhibitory effect on PKA", "setting": "PKA", "value": "did not exhibit an inhibitory effect"}, {"measurement": "death", "setting": "Slc:SD rats; oral 2000 mg/kg, observed for 14 days", "value": "none of the male and female rats died"}, {"measurement": "death", "setting": "Slc:SD rats; oral 125, 250, 500, 1000, or 2000 mg/kg, two days after administration", "value": "None of the male and female rats died"}, {"measurement": "general condition", "setting": "Slc:SD rats; rat, in vivo, po, 2000 mg/kg", "value": "no abnormalities were detectable in their general condition"}, {"measurement": "inhibitory effect on PKC", "setting": "PKC", "value": "did not exhibit an inhibitory effect"}, {"measurement": "HA antibody signal (HA-SRp75)", "setting": "SRp75 protein", "value": "weakened depending on the concentration of SRPIN-1"}, {"measurement": "effect in suppressing HIV replication (HIVp24)", "setting": "HIV; MT-4 cells, 5, 10, or 20 μM", "value": "strong effects in suppressing HIV propagation"}, {"measurement": "amount of HIVp24", "setting": "HIV; MT-4 cells, SRPIN-1 0.5, 10, or 20 μM", "value": "decreased in an SRPIN-1 concentration-dependent manner"}, {"measurement": "SARS virus propagation, concentration dependence (plaque assay)", "setting": "SARS virus (FFM-1)", "value": "suppress SARS virus propagation in a concentration-dependent manner"}, {"measurement": "SARS virus propagation (plaque assay)", "setting": "SARS virus (FFM-1); Vero cells, 40 μM, 48 hours", "value": "significantly suppressed SARS virus propagation"}, {"measurement": "viral propagation-suppressing effect compared with Compound No. 349", "setting": "SARS virus (FFM-1); Vero cells, SARS virus", "value": "stronger than that of the analog compound (Compound No. 349)"}, {"measurement": "inhibitory effect on SRPK2", "setting": "SRPK2", "value": "did not exhibit an inhibitory effect"}, {"measurement": "increase in the number of cells with structural and numerical chromosomal abnormalities", "setting": "[1]; continuous treatment method (24 hours), 5, 1.58, or 0.5 mg/ml", "value": "negative (When the frequency of cell abnormality was less than 5%, the testing substance was judged to be negative)"}, {"measurement": "increase in the number of cells with structural and numerical chromosomal abnormalities", "setting": "[1]; short treatment method (+S9 mix, six hours), 5, 1.58, or 0.5 mg/ml", "value": "negative (When the frequency of cell abnormality was less than 5%, the testing substance was judged to be negative)"}, {"measurement": "IC50", "setting": "SRPK1", "value": "~0.4", "unit": "µM"}]}]}
